From paper PMC7357868 (ACS chemical biology, 2019) come the findings set out here.

In assay [1] the target is T1, hpol η (Homo sapiens, UniProt Q9Y253).
T1 sequence (Q9Y253 1-437): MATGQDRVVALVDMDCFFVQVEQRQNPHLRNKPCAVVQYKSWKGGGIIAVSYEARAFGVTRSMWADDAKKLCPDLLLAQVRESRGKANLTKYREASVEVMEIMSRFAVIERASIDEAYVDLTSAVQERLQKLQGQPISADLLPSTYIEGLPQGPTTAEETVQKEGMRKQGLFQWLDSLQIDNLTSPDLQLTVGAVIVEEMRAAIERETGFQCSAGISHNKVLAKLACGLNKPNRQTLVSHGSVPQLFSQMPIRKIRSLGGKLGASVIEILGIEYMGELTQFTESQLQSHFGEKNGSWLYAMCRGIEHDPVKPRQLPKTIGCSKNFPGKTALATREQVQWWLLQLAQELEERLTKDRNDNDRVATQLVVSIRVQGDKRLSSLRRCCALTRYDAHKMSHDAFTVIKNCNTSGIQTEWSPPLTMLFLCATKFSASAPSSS
The assay can be described thus: TAMRA strand-displacement fluorescence assay of DNA polymerase activity. The class given is biochemical. Particulars: 95% CI in parentheses.

The target of assay [2] is T1, hpol η. The assay can be described thus: Gel-based primer extension assay. The class given is biochemical. Particulars: 10 μM IAG-10, 2 nM hpol η.
In another assay the target is T2, pol Dpo1 (Saccharolobus solfataricus, UniProt P26811).
T2 sequence (P26811 1-882): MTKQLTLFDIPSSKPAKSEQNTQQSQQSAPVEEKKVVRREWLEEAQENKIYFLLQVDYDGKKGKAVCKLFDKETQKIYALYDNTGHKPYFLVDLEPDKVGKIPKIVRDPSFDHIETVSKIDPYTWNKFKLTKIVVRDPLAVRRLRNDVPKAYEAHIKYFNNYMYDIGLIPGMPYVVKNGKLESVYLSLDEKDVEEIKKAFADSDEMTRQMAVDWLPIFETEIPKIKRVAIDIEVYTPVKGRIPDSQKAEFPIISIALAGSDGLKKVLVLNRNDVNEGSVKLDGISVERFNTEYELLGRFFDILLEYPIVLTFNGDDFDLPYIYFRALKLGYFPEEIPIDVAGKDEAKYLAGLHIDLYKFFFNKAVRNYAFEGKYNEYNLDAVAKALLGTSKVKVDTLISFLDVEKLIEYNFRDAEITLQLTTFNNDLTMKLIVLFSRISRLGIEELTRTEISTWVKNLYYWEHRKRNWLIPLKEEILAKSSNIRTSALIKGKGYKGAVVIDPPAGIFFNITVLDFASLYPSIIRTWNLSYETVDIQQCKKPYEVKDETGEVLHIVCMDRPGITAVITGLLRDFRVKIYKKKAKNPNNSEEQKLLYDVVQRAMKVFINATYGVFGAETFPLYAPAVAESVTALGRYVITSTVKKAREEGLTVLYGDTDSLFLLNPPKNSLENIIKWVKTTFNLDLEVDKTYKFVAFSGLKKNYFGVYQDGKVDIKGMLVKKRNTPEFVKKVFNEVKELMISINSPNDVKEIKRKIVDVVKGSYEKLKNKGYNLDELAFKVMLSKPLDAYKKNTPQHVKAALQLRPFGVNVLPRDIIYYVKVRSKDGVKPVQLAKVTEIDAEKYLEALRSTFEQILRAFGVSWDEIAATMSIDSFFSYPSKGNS
In words: TAMRA strand-displacement selectivity assay, B-family pol. The format is biochemical, Sulfolobus solfataricus. Particulars: 10 μM IAG-10, 25 nM Dpo1.

A further assay deals with hpol β (Homo sapiens, UniProt P06746). The assay can be described thus: TAMRA strand-displacement selectivity assay, X-family pol. The format is biochemical. The note with it: 10 μM IAG-10, 1 nM hpol β.
In the next assay the target is T3, hpol λ (Homo sapiens, UniProt Q9UGP5).
T3 sequence (Q9UGP5 251-575 limits assumed): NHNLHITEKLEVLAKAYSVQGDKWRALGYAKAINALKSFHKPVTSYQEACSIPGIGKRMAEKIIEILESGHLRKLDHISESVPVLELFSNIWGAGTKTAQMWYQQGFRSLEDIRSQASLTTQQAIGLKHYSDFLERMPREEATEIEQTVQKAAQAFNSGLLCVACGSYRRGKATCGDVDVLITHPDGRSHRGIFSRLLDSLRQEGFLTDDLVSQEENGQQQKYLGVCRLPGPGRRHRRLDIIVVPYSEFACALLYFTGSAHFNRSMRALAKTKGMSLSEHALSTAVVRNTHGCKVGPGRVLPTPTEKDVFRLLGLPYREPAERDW
Described as above. Particulars: 10 μM IAG-10, 10 nM hpol λ. The class given is biochemical.

For assay [3], the target named is T4, hpol η binding to primer-template DNA (Homo sapiens, UniProt Q9Y253).
T4 sequence (Q9Y253 1-437): T1 sequence (Q9Y253 1-437)
In words: Fluorescence anisotropy DNA binding assay. Particulars: inhibitor concentration near the IC50 for pol activity; 2 nM FAM-labeled p/t-DNA.

Assay [4] concerns hpol κ-deficient HAP-1 cells. In words: Clonogenic survival assay. The format is cell-based, human.
Another assay has as its target T5, hpol κ (Homo sapiens, UniProt Q9UBT6).
T5 sequence (Q9UBT6 19-526): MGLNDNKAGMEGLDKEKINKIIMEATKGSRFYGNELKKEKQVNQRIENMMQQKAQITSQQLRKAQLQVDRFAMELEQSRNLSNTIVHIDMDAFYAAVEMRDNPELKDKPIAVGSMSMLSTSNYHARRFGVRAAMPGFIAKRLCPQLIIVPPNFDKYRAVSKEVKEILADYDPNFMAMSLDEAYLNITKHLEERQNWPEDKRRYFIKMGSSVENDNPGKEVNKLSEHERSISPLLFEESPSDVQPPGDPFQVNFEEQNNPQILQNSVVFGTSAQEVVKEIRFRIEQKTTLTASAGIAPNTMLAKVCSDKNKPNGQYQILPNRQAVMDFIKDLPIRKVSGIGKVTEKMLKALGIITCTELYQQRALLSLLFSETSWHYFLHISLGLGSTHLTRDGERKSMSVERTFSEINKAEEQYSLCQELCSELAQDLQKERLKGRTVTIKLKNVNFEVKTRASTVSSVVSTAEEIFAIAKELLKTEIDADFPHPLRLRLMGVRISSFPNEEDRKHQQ
The assay can be described thus: Steady-state kinetic analysis of dTTP insertion. The note with it: 0.5 nM hpol κ, 25 nM DNA, varying inhibitor concentration. The format is biochemical.

In assay [5] the target is T1, hpol η. In words: Steady-state kinetic analysis of nucleotide insertion. The note with it: increasing IAG-10 concentration. The format is biochemical.

The IC50 is the concentration that inhibits the measured activity by half.

Consider `Cl.[H]/N=C(\N)NN=Cc1cn(C(=O)c2cccc3ccccc23)c2ccc(Cl)cc12` [IAG-10, (E)-2-((1-(1-naphthoyl)-5-chloro-1H-indol-3-yl)-methylene)hydrazine-1-carboximidamide hydrochloride], for which the IC50 on hpol η [1] (IC50, 0.2 nM hpol η, 2 nM DNA) was determined as 22.5 µM; on hpol η [1] (IC50, 1 nM hpol η, 50 nM DNA), 14.3 µM. Also, the “polymerase activity in presence of compound” value was “only hpol κ was inhibited” at hpol η [2], “only hpol κ activity was inhibited” on pol Dpo1, “only hpol κ activity was inhibited” on hpol β and “only hpol κ activity was inhibited” at hpol λ. Also, the “increase in the Kd,DNA” value in assay [3] is 20–30%. The colony formation result in assay [4] (0.5 μM IAG-10 alone) was “does not impair colony formation”. The “colony forming ability, cotreatment over TMZ alone” value in assay [4] (TMZ + 0.5 μM IAG-10) was “did not show any significant reduction”. The “effect on turnover number (kcat)” value at hpol κ is reported as “sharp decrease”. Also, the “effect on Michaelis constant” value at hpol η [5] was “linear increase”. Besides, at hpol η [5], the effect on kcat entry is “no measurable change”.
